From patent publication US20020193425A1, “Cancer chemopreventative compounds and compositions and methods of treating cancers” (priority 2001, published 2002)

What was measured:
Assay type in all cases: cell-based
c-myc mRNA, BV173 = assay: c-myc mRNA levels, real time RT-PCR
Method: (§1) RNA was extracted from 10^6 cells using TRIZOL® Reagent (Life Technologies). Following isopropanol precipitation, the pellet was washed in 75% aqueous ethanol and the RNA was dissolved in […] of diethyl pyrocarbonate (DEPC)-treated distilled water. Subsequently, the samples were stored at −80° C. RNA quantitation was performed by UV measurement at 260 nm. The cDNA synthesis was performed in a total volume of […], containing 1×TaqManÒ RT buffer, 5.5 mM MgCl2, 2 mM dNTPs mixture, 2.5 mM random hexamers, 4 U RNase inhibitor, 12.5 U MultiScriber RT (Perkin Elmer/Applied Biosystems) and […] of RNA. The reaction was performed for 10 min at 25° C., followed by 48° C. for 30 min and a 5 min incubation step at 95° C. After the reaction, […] of DEPC-treated distilled water was added to each sample and […] was used for each PCR.
(§2) The PCR and subsequent analyses were performed in the GeneAmp 5700 Sequence Detection System (Applied Biosystems). Real-time quantitation was performed using the TaqMan technology of Applied Biosystems (Foster City, Calif., USA). c-Myc primers and probe sequences (5′ to 3′) were as follows: […], […] and […] (Applied Biosystems).
(§3) PCR reactions were performed in triplicate. The PCR reaction mixture contained 300 nM of both primers, 150 nM TaqMan probe, and 1×TaqMan Universal Master Mix (Applied Biosystems). The reactions first were incubated at 50° C. for 2 min, followed by 10 min at 95° C. The PCR itself consisted of 40 cycles with 15 s at 95° C. and 1 min at 60° C. each. The fluorescence signal was measured during the last 30 s of the annealing/extension phase. After the PCR, a fluorescence threshold value was set and threshold cycle (Ct) values were determined, i.e., the fractional cycle at which the fluorescence signal reached this threshold. These values were used for further calculations.
(§4) β-Actin (TaqMan PDAR control, Applied Biosystems) was used as an endogenous reference to correct for any differences in the amount of total RNA used for a reaction and to compensate for different levels of inhibition during reverse transcription of RNA into cDNA. c-Myc and β-actin expression were related to a standard curve derived from a serial dilution of K562 cDNA with dH2O. Also, c-Myc and β-actin quantities were expressed in terms of ng of K562 RNA yielding the same level of expression. Subsequently, normalization was achieved by dividing the expression level of c-Myc by the β-actin expression level. Finally, results were expressed as a percentage, where the level of c-Myc observed in the DMSO-treated samples was considered as 100%.
(§5) Cells were treated with brusatol (25 ng/ml) or bruceantin (10 ng/ml) for 4 or 24 h and then analyzed for c-myc and β-actin mRNA using real time RT-PCR. Results are shown as percentage of c-myc mRNA expression of control (0.1%, v/v, DMSO) values. Results are the mean of triplicate samples (±standard deviation). c-Myc mRNA values were normalized relative to β-actin.

c-myc mRNA, Daudi = assay: c-myc mRNA levels, real time RT-PCR
Method: as §1, §2, §3, §4, §5

c-myc mRNA, K562 = assay: c-myc mRNA levels, real time RT-PCR
Method: as §1, §2, §3, §4, §5

c-myc mRNA, Kasumi-1 = assay: c-myc mRNA levels, real time RT-PCR
Method: as §1, §2, §3, §4, §5

c-myc mRNA, NB4 = assay: c-myc mRNA levels, real time RT-PCR
Method: as §1, §2, §3, §4, §5

c-myc mRNA, RS4;11 = assay: c-myc mRNA levels, real time RT-PCR
Method: as §1, §2, §3, §4, §5

c-myc mRNA, Reh = assay: c-myc mRNA levels, real time RT-PCR
Method: as §1, §2, §3, §4, §5

c-myc mRNA, SUPB13 = assay: c-myc mRNA levels, real time RT-PCR
Method: as §1, §2, §3, §4, §5

c-myc mRNA, U937 = assay: c-myc mRNA levels, real time RT-PCR
Method: as §1, §2, §3, §4, §5

[1] = test system: HL-60 (human promyelocytic) cells; assay: HL-60 cell proliferation assay of quassinoids, [3H]thymidine incorporation; conditions: for IC50: Homo sapiens, 4-day incubation, [3H]thymidine incorporation, read-out: inhibition of proliferation (IC50); for selectivity index: ratio of cytotoxic IC50 over antiproliferative IC50
Method: Induction of differentiation was determined by the ability of treated cells to produce superoxide anions (nitroblue tetrazolium (NBT)-reduction), a functional marker of mature macrophages or granulocytes. Proliferation capacity is equivalent to cell growth and was measured by incorporation of [3H]thymidine into DNA over a period of 18 h, and cytotoxic activity was evaluated by the loss of membrane integrity as shown by trypan blue exclusion. […] Although members of the brusatol and glaucarubolone series were active, when comparing members of both series that varied only in the positioning of the epoxymethano bridge, great differences were noted, as shown with yadianzolide C (5) and glaucarubolone (24), and analogues 4 (brusatol series) and 32 (glaucarubolone series).
HL-60 (human promyelocytic) cells were tested using a 4-day incubation protocol. In brief, cells in log phase (approximately 10^6 cells/mL) were diluted to […] and preincubated overnight (18 h) in 24-well plates to allow cell-growth recovery. Then, samples dissolved in DMSO were added, keeping the final DMSO concentration at 0.1% (v/v). Control cultures were treated with the same concentration of DMSO. After 4 days of incubation, the cells were analyzed to determine the percentage of cells undergoing maturation as determined by NBT reduction. Concomitantly, the effect on viability and proliferation of HL-60 cells was determined. In each experiment, 1α, 25-dihydroxyvitamin D3 (EC50=0.01 μM) and brusatol (EC50=0.07 μM) were used as reference controls. EC50 and IC50 values were calculated using 5-7 test concentrations (in duplicate), and consistent results were obtained, indicating the data reported for the related quassinoids are reliable.
(3) Cell Proliferation Assay. […] Cells were then collected on glass fiber filters (90×120 mm; Wallac, Turku, Finland) using a TOMTEC Harvester 96®.

In the case of COC(=O)[C@@]12OC[C@]34[C@H]([C@@H](O)[C@@H]1O)[C@@]1(C)CC(=O)C(O)=C(C)[C@@H]1C[C@H]3OC(=O)[C@H](OC(=O)C=C(C)C)[C@@H]24 [compound 1, brusatol], the “c-myc mRNA expression, percentage of control” value (c-myc mRNA, BV173; Brusatol (25 ng/ml), 4 h) is reported as 78 ± 12 %, the “c-myc mRNA expression, percentage of control” value (c-myc mRNA, BV173; Brusatol (25 ng/ml), 24 h) is reported as 45 ± 0 % and the “c-myc mRNA expression, percentage of control” value (c-myc mRNA, Daudi; Brusatol (25 ng/ml), 4 h) is reported as 100 ± 7%. The “c-myc mRNA expression, percentage of control” value (c-myc mRNA, Daudi; Brusatol (25 ng/ml), 24 h) was 84 ± 1 %, the “decrease in c-Myc mRNA levels” value (c-myc mRNA, K562; 4 h treatment) was “about 40%” and the “c-myc mRNA expression, percentage of control” value (c-myc mRNA, K562; Brusatol (25 ng/ml), 4 h) was 62 ± 4 %. For the same compound, the “c-myc mRNA expression, percentage of control” value (c-myc mRNA, K562; Brusatol (25 ng/ml), 24 h) was 45 ± 6 %, the “c-myc mRNA expression, percentage of control” value (c-myc mRNA, Kasumi-1; Brusatol (25 ng/ml), 4 h) was 27 ± 5 % and the “c-myc mRNA expression, percentage of control” value (c-myc mRNA, Kasumi-1; Brusatol (25 ng/ml), 24 h) was 31 ± 3 %. The “c-myc mRNA expression, percentage of control” value (c-myc mRNA, NB4; Brusatol (25 ng/ml), 4 h) was 34 ± 4 %, the “c-myc mRNA expression, percentage of control” value (c-myc mRNA, NB4; Brusatol (25 ng/ml), 24 h) was 24 ± 3 % and the “c-myc mRNA expression, percentage of control” value (c-myc mRNA, RS4;11; RS4,11, Brusatol (25 ng/ml), 24 h) was 37 ± 2 %. For the same compound, the “c-myc mRNA expression, percentage of control” value (c-myc mRNA, RS4;11; RS4;11, Brusatol (25 ng/ml), 4 h) was 54 ± 5 %, the “c-myc mRNA expression, percentage of control” value (c-myc mRNA, Reh; Brusatol (25 ng/ml), 4 h) was 87 ± 2% and the “c-myc mRNA expression, percentage of control” value (c-myc mRNA, Reh; Brusatol (25 ng/ml), 24 h) was 38 ± 3 %. The “c-myc mRNA expression, percentage of control” value (c-myc mRNA, SUPB13; Brusatol (25 ng/ml), 4 h) was 27 ± 3 %, the “c-myc mRNA expression, percentage of control” value (c-myc mRNA, SUPB13; Brusatol (25 ng/ml), 24 h) was 24 ± 1 % and the “c-myc mRNA expression, percentage of control” value (c-myc mRNA, U937; Brusatol (25 ng/ml), 4 h) was 103 ± 1%. The “c-myc mRNA expression, percentage of control” value (c-myc mRNA, U937; Brusatol (25 ng/ml), 24 h) was 19 ± 1 %, the IC50 [1] was 70 ± 7 nM and the selectivity index [1] was 2.5 ± 0.3.
In the case of COC(=O)[C@@]12OC[C@]34[C@H]([C@@H](O)[C@@H]1O)[C@@]1(C)CC(=O)C(O)=C(C)[C@@H]1C[C@H]3OC(=O)[C@H](OC(=O)/C=C(\C)C(C)C)[C@@H]24 [compound 2, bruceantin], the “c-myc mRNA expression, percentage of control” value (c-myc mRNA, BV173; Bruceantin (10 ng/ml), 4 h) is reported as 125 ± 11 %, the “c-myc mRNA expression, percentage of control” value (c-myc mRNA, BV173; Bruceantin (10 ng/ml), 24 h) is reported as 67 ± 9 % and the “c-myc mRNA expression, percentage of control” value (c-myc mRNA, Daudi; Bruceantin (10 ng/ml), 4 h) is reported as 134 ± 17%. For the same compound, the “c-myc mRNA expression, percentage of control” value (c-myc mRNA, Daudi; Bruceantin (10 ng/ml), 24 h) was 70 ± 5 %, the “c-myc mRNA expression, percentage of control” value (c-myc mRNA, K562; Bruceantin (10 ng/ml), 4 h) was 55 ± 2 % and the “c-myc mRNA expression, percentage of control” value (c-myc mRNA, K562; Bruceantin (10 ng/ml), 24 h) was 33 ± 2 %. The “c-myc mRNA expression, percentage of control” value (c-myc mRNA, Kasumi-1; Bruceantin (10 ng/ml), 4 h) was 20 ± 2 %, the “c-myc mRNA expression, percentage of control” value (c-myc mRNA, Kasumi-1; Bruceantin (10 ng/ml), 24 h) was 15 ± 2 % and the “c-myc mRNA expression, percentage of control” value (c-myc mRNA, NB4; Bruceantin (10 ng/ml), 4 h) was 27 ± 4 %. The “c-myc mRNA expression, percentage of control” value (c-myc mRNA, NB4; Bruceantin (10 ng/ml), 24 h) was 85 ± 5%, the “c-myc mRNA expression, percentage of control” value (c-myc mRNA, RS4;11; RS4;11, Bruceantin (10 ng/ml), 4 h) was 68 ± 3% and the “c-myc mRNA expression, percentage of control” value (c-myc mRNA, RS4;11; RS4;11, Bruceantin (10 ng/ml), 24 h) was 31 ± 8 %. For the same compound, the “c-myc mRNA expression, percentage of control” value (c-myc mRNA, Reh; Bruceantin (10 ng/ml), 4 h) was 68 ± 5 %, the “c-myc mRNA expression, percentage of control” value (c-myc mRNA, Reh; Bruceantin (10 ng/ml), 24 h) was 42 ± 6 % and the “c-myc mRNA expression, percentage of control” value (c-myc mRNA, SUPB13; Bruceantin (10 ng/ml), 4 h) was 38 ± 2 %. For the same compound, the “c-myc mRNA expression, percentage of control” value (c-myc mRNA, SUPB13; Bruceantin (10 ng/ml), 24 h) was 24 ± 2 %, the “c-myc mRNA expression, percentage of control” value (c-myc mRNA, U937; Bruceantin (10 ng/ml), 4 h) was 86 ± 1% and the “c-myc mRNA expression, percentage of control” value (c-myc mRNA, U937; Bruceantin (10 ng/ml), 24 h) was 19 ± 2 %. It also gave an IC50 [1] of 40 ± 3 nM and a selectivity index [1] of 1.0 ± 0.2.
